In patent US11214803B2, “Modulators of YAP1 expression” (Ionis Pharmaceuticals, Inc., priority 2019, dated 2022):
Strand notation (5' to 3'): a small letter for the sugar, then the base; units joined by * are phosphorothioate-linked, units joined directly phosphodiester-linked; [ ] holds rarer units or linkages, { } end groups; capitals alone tell only the bases. k = constrained ethyl (cEt); [5mC] = 5-methylcytosine; d = 2'-deoxy (DNA)

Test system: Yap1 mRNA
Assay: Antisense inhibition of human Yap1 in A-431 cells by cEt gapmers, single dose (Example 3, RTS36584)
Format: cell-based
In short: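 Values are % untreated control: Yap1 mRNA by quantitative RT-PCR (RTS36584), normalized to total RNA by RiboGreen. Before RNA isolation, 5,000 A-431 cells per well were exposed ~48 h to 2,000 nM 16-mer cEt gapmer, delivered without transfection reagent.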

[1] = Table 26, Yap1 mRNA by 3-10-3 cEt gapmers targeting SEQ ID NO.: 1, and 2, percent of untreated control
[2] = Table 11, A-431 cells, 5,000 cells per well, free uptake, 2,000 nM oligonucleotide, approx. 48 hours, primer probe set RTS36584, Yap1 mRNA normalized to RIBOGREEN, percent of untreated control
[3] = Table 10, A-431 cells, 5,000 cells per well, free uptake, 2,000 nM oligonucleotide, approx. 48 hours, primer probe set RTS36584, Yap1 mRNA normalized to RIBOGREEN, percent of untreated control
[4] = Table 28, Yap1 mRNA as percent of untreated control, 3-10-3 cEt gapmers targeting SEQ ID NO.: 1, and 2
[5] = Table 9, A-431 cells, 5,000 cells per well, free uptake, 2,000 nM, approximately 48 hours, RTS36584, normalized to RIBOGREEN, Yap1 mRNA relative to untreated control cells
[6] = Table 27, Yap1 mRNA by 3-10-3 cEt gapmers targeting SEQ ID NO.: 1, and 2, percent of untreated control

With “1075500 (kT*kA*kA*dA*dT*dT*dA*dA*dG*d[5mC]*d[5mC]*dA*dA*k[5mC]*kA*k[5mC]; antisense) [compound 1075500]” the “YAP1 (% UTC)” value [1] was 26 % UTC.
In the case of “958758 (antisense k[5mC]*kT*kA*dT*dT*d[5mC]*dA*dG*dT*dG*dA*dT*d[5mC]*kT*kG*k[5mC]) [Compound 958758]”, the “YAP1 (% UTC)” value [2] is reported as 2 % UTC.
For “958657 (k[5mC]*kA*kG*dT*dA*dT*dA*dA*dT*dA*dT*d[5mC]*d[5mC]*kT*kA*kA; antisense) [Compound 958657]”, the “YAP1 (% UTC)” value [3] was 37 % UTC.
“1074645 (antisense kA*kA*kT*dT*dG*dA*dA*dG*dG*dG*d[5mC]*d[5mC]*dA*kA*kA*kA) [compound 1074645]” was tested, and the “YAP1 (% UTC)” value (Table 35, Yap1 mRNA as percent of untreated control, 3-10-3 cEt gapmers targeting SEQ ID NO: 1 and 2, single dose) was 81 % UTC.
In the case of “958537 (k[5mC]*kA*kG*dG*dG*dT*d[5mC]*dA*dA*dT*dT*dT*dT*k[5mC]*kA*kG; antisense) [Compound 958537]”, the “YAP1 (% UTC)” value [3] is reported as 3 % UTC.
With “1075982 (k[5mC]*kA*kT*dG*dA*dA*dA*dG*d[5mC]*dA*dA*dT*dA*kT*k[5mC]*k[5mC]; antisense) [compound 1075982]” the “YAP1 (% UTC)” value [4] was 23 % UTC.
“958756 (antisense kG*kT*kG*dT*dT*dG*d[5mC]*dA*dT*dG*dA*d[5mC]*dA*kG*k[5mC]*k[5mC]) [Compound 958756]” was tested, and the “YAP1 (% UTC)” value [5] was 15 % UTC.
“1074733 (kG*k[5mC]*k[5mC]*dA*dG*dG*dT*dA*dT*d[5mC]*dA*d[5mC]*dA*kG*kT*kA; antisense) [compound 1074733]” was tested, and the “YAP1 (% UTC)” value [6] was 47 % UTC.
In the case of “958728 (antisense kT*kA*kT*d[5mC]*dT*dG*dT*d[5mC]*dA*dG*dT*dT*dA*kT*k[5mC]*k[5mC]) [Compound 958728]”, the “YAP1 (% UTC)” value [2] is reported as 10 % UTC.
In the case of “1074191 (antisense kA*k[5mC]*kG*dG*d[5mC]*dG*dG*dG*d[5mC]*d[5mC]*d[5mC]*dT*dG*k[5mC]*k[5mC]*k[5mC]) [compound 1074191]”, the “YAP1 (% UTC)” value (Table 29, Yap1 mRNA as percent of untreated control, 3-10-3 cEt gapmers targeting SEQ ID NO.: 1, and 2) is reported as 80 % UTC.
For “1075308 (antisense kA*kA*kT*dT*dA*dA*dA*d[5mC]*dG*dA*dA*dA*d[5mC]*kA*k[5mC]*kG) [compound 1075308]”, the “YAP1 (% UTC)” value [1] was 97 % UTC.
For “958796 (antisense kA*kT*kT*dA*dT*dA*dT*dG*dG*dT*dT*dG*d[5mC]*kT*kT*k[5mC]) [Compound 958796]”, the “YAP1 (% UTC)” value [5] was 3 % UTC.
“958757 (antisense kG*kT*kG*dA*dT*d[5mC]*dT*dG*d[5mC]*dA*d[5mC]*dA*dT*kT*kG*kT) [Compound 958757]” was tested, and the “YAP1 (% UTC)” value [3] was 5 % UTC.
With “1074572 (DNA kT*kT*kA*dT*dG*dA*dA*d[5mC]*d[5mC]*dT*dA*d[5mC]*dT*k[5mC]*kA*k[5mC]) [compound 1074572]” the “YAP1 (% UTC)” value [1] was 17 % UTC.
For “958752 (antisense kG*kA*kA*dT*dT*dT*dT*dT*dA*dG*dT*d[5mC]*d[5mC]*kA*kG*kT) [Compound 958752]”, the “YAP1 (% UTC)” value [3] was 2 % UTC.
In the case of “958609 (antisense kT*kG*kA*d[5mC]*dA*dA*dG*dT*dG*dT*dG*d[5mC]*dA*kT*kT*kA) [Compound 958609]”, the “YAP1 (% UTC)” value (Table 12, A-431 cells, 5,000 cells per well, free uptake, 2,000 nM modified oligonucleotide, approx. 48 hours, RTS36584, normalized to RIBOGREEN, Yap1 mRNA relative to untreated control cells) is reported as 16 % UTC.
For “958406 (antisense kT*kT*kT*d[5mC]*dA*dG*dT*dT*dA*dT*d[5mC]*dG*dG*k[5mC]*k[5mC]*k[5mC]) [Compound 958406]”, the “YAP1 (% UTC)” value (Table 8, A-431 cells, 5,000 cells per well, free uptake, 2,000 nM, approximately 48 hours, RTS36584, normalized to RIBOGREEN, Yap1 mRNA relative to untreated control cells) was 29 % UTC.
In the case of “958681 (kA*kA*kT*dT*dA*dA*d[5mC]*dA*d[5mC]*d[5mC]*dT*dG*dA*kG*k[5mC]*kT; antisense) [Compound 958681]”, the “YAP1 (% UTC)” value [5] is reported as 84 % UTC.
In the case of “1074860 (kA*kA*kA*dG*dG*dT*dA*dA*d[5mC]*dA*dT*dT*dG*kG*kT*kA; antisense) [compound 1074860]”, the “YAP1 (% UTC)” value [1] is reported as 9 % UTC.
With “1074541 (k[5mC]*kA*k[5mC]*dT*dA*dT*d[5mC]*d[5mC]*dA*d[5mC]*dA*dG*dT*kA*kA*kT; antisense) [compound 1074541]” the “YAP1 (% UTC)” value [6] was 23 % UTC.
“958523 (kT*kT*k[5mC]*d[5mC]*dA*dA*dT*d[5mC]*dG*dA*dG*dA*d[5mC]*kT*kT*kA; antisense) [Compound 958523]” was tested, and the “YAP1 (% UTC)” value [2] was 3 % UTC.
In the case of “1075566 (kA*kT*kA*dT*dA*dT*dA*dA*d[5mC]*dA*dG*dG*d[5mC]*k[5mC]*kA*k[5mC]; antisense) [compound 1075566]”, the “YAP1 (% UTC)” value [4] is reported as 50 % UTC.
